For orientation: IC50 means the midpoint of a concentration-inhibition curve. Lower therefore signals higher potency.

The results in this text go back to patent US4665087A, “1-(carbamyl, thiocarbamyl, and iminocarbamyl)-indoline derivatives” (Ciba-Geigy Corporation, priority 1985, dated 1987).

The target in assay [1] is T1, angiotensin-converting enzyme (Oryctolagus cuniculus, UniProt P12822).
T1 construct: freshly prepared from lungs of adult male rabbits; from tissue; host or cells: lungs of adult male rabbits
T1 sequence (P12822 34-1310): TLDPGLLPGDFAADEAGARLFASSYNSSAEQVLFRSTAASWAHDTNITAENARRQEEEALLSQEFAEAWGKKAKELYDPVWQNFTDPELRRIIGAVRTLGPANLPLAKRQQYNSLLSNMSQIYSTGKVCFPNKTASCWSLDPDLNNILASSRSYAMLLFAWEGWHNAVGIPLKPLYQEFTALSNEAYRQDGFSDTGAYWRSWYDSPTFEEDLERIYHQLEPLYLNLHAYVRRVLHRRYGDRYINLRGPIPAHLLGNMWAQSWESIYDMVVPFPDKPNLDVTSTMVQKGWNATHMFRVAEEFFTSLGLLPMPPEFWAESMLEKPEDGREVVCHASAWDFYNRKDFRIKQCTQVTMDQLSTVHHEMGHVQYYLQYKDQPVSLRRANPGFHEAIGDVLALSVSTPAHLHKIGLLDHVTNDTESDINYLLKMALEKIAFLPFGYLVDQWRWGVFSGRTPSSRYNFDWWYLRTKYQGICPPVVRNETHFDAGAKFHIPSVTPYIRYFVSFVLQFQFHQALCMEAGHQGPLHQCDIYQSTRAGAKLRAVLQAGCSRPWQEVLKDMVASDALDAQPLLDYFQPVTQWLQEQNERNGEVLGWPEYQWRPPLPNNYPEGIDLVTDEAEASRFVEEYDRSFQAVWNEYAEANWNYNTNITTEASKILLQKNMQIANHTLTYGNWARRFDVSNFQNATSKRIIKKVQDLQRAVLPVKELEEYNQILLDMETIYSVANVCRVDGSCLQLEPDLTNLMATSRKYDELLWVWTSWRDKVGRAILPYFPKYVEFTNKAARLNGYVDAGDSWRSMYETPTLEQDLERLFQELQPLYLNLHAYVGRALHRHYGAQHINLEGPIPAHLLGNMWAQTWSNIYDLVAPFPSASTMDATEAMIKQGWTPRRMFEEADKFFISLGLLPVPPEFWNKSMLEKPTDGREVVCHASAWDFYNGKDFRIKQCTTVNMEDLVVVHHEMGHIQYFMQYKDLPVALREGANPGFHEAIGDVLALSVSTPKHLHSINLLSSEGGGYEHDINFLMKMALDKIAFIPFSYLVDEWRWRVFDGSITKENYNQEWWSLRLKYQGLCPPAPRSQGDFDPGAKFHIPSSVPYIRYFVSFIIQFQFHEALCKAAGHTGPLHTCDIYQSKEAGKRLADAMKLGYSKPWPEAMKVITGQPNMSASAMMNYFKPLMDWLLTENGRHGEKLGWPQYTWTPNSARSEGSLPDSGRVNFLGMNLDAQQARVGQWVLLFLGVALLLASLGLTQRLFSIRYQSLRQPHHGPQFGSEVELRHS
Kind of assay: in vitro inhibition of the angiotensin-converting enzyme. It is filed as biochemical, rabbit. The protocol:
Biophys. Acta 293, 451 (1973). According to this method said compounds are dissolved at about 1 mM concentrations in phosphate buffer, externally cooled with ice. To these solutions various μl amounts of 1 mM of histidyl-leucine in phosphate buffer are added, followed by 100 μl of 4mM hippuryl-histidyl-leucine in phosphate buffer and 50 μl of the angiotensin-converting enzyme, which is freshly prepared from lungs of adult male rabbits in Tris buffer, containing potassium and magnesium chloride, as well as sucrose. The solutions are incubated at 37° C. for 30 minutes and combined with 0.75 ml or 0.6 N aqueous sodium hydroxide to stop further reaction. Then 100 μl of o-phthalaldehyde are added at room temperature, and 10 minutes later 100 μl of 6N hydrochloric acid. These samples are read against water in a spectrophotometer set at 360 nm, and the optical densities thereof estimated. They are corrected for the standard curve via a conversion factor expressing nanomoles of histidyl-leucine formed during the 30 minute incubation period. The results are plotted against drug concentration to determine the IC50, i.e., the drug concentration which gives half the activity of the control sample containing no drug. Again, representative members of the compounds of this invention are very effective in this in vitro test system, down to IC50 values as low as 5 nM (5×10^-9 M).

The subject of assay [2] is angiotensin I pressor response. In words: inhibition of the angiotensin I pressor response in anesthetized normotensive rats. The following applies: rat, 1.0 mg/kg i.v. It is filed as in vivo. The procedure: The enzyme renin normally causes specific hydrolysis of the circulating protein renin substrate. This hydrolysis generates angiotensin I, which is further hydrolyzed by the action of said converting enzyme to the potent vasoconstrictor angiotensin II. The inhibition of said enzyme prevents the generation of angiotensin II from I and, therefore, attenuates any pressure response following an angiotensin I challenge.
The corresponding in vivo test is performed with male, normotensive rats, which are anesthetized with 100-120 mg/kg i.p. of sodium ethyl-(1-methylpropyl)-malonylthiourea. A femoral artery and saphenous vein are cannulated for direct blood pressure measurement and i.v. administration of angiotensin I and compounds of this invention. After the basal blood pressure is stabilized, pressor response is to 3 challenge of 0.33 μg/kg of angiotensin I i.v., in 5 minutes intervals, are obtained. Such pressure responses are again obtained 5, 10, 15, 30 and 60 minutes after either i.v., or p.o. administration (stomach tube) of the compounds to be tested, and compared with the initial responses. […]

Structures can show the parent of a compound that is named as a salt.

For `NCCCCN(C[C@@H](CCc1ccccc1)C(=O)O)C(=O)N1c2ccccc2C[C@H]1C(=O)O` [Example 9, 1S-[(R)-N-(2-carboxy-4-phenylbutyl)-N-(4-aminobutyl)carbamoyl]-2,3-dihydroindole-2-carboxylic acid disodium salt], the IC50 in assay [1] was ~6 nM. The “inhibition of the angiotensin I induced hypertension” value in assay [2] is recorded as “virtually completely inhibits”.
